In one data set the test system is NP-1 cells. The data set is described as follows: TGF-β-induced EMT in NP-1 cells (inhibition and reversal). In kind it is cell-based. As to conditions: for TGF-β-induced E-cadherin loss (co-incubation): 48 h; for TGF-β-induced E-cadherin loss (co-incubation) / TGF-β-induced EMT, cell shape (co-incubation): BMP-7 1 μg/ml, THR-123 10 μM; for E-cadherin expression in TGF-β-incubated cells (reversal) / percentage of cells that regained epithelial characteristics (length to width ratio): NP-1 cells; for TGF-β-induced EMT, cell shape (co-incubation): TGF-β 3 ng/ml with EGF 48 h; for percentage of cells that regained epithelial characteristics (length to width ratio): reversal experiment. The method, then:
FIG. 51A-FIG. 51J THR-123 inhibits epithelial-mesenchymal transition in NP-1 cells. FIG. 51A-FIG. 51E: Bright field image. […] F-J. E-cadherin immunofluorescence labeling. NP-1 cells expressed E-cadherin in cell border (FIG. 51F). […] Representative results are shown.
FIG. 53A-FIG. 53L Reversal of EMT by THR-123 in NP-1 cells A-E: Inverted microscopic pictures. FIG. 53A. Basal polygonal epithelial nature of NP1 cells. FIG. 53B. […] FIG. 53C, FIG. 53D. BMP 7 (1 μg/ml) (FIG. 53C) or THR-123 (10 μM) (FIG. 53D) were added to mesenchymal like cells induced by TGF-β and EGF for the additional 48 hrs. […] FIG. 53E. […] FIG. 53F. Ratio of length to width was calculated in reversal experiment. Five representative pictures of the cells in different areas of the well, were taken by using the inverted microscope. A total of 100 cells were analyzed (20 cells per picture). […] The data are presented mean+s.e.m. in the graph. FIG. 53G. […] Mean plus one SD was estimated as epithelial characteristics and the percentage of epithelial characteristics in each experimental setting were estimated. 18% of BMP7 and 24% of THR-123 treated NP-1 cells regained epithelial characteristics. FIG. 53H-FIG. 53L. Immunofluorescence picture for E-cadherin. TGF-β incubation decreased E-cadherin levels when compare to untreated cells (FIG. 53H, FIG. 53I). […] Representative results from three independent experiments are shown.
(§1) EMT was induced in NP1 cells or MCT cells by incubation with 3 ng/ml recombinant human […] for 48 h. When EMT occurred, the medium was removed and replaced with THR-123 (10 μM) or recombinant human BMP7 (100 ng/ml) in DMEM. After 48 h, the cells were characterized by immunocytochemistry using primary monoclonal antibodies to E-cadherin ([…]) and rhodamine-conjugated secondary antibodies (Jackson Immunoresearch, West Grove, Pa.) as previously described. The staining was visualized by fluorescence microscopy and documented representative pictures using Spot advanced software (Carl Zeiss, Oberkochen, Germany). Also protein and total RNA were harvested at the end of experiment. For the morphometric analysis for EMT, length/width of cells in bright field pictures are measured by image J software. The ratio of length/width was calculated.

In data set [1] the test system is Streptozotocin-induced diabetic CD-1 mice. The data set can be described thus: STZ-induced diabetic nephropathy study (THR-123 month 5-6, BMP-7 month 1-6). As to conditions: for net increase in FSP1 (mesenchymal tissue) at six months versus normal animals: BMP7 five months, SEQ ID NO: 1 final month, untreated 27 and 29 times; for interstitial fibrosis (collagen accumulation, Masson's trichrome): THR-123 5 mg/kg/day oral; for increase in BUN level relative to normal animals: untreated 85% at 5 months, 94% at 6 months. In kind it is in vivo. The method, then:
FIG. 17 depicts the STZ experimental protocol behind the study discussed in Example 2. […] Mice were given a single intraperitoneal injection of Streptozotocin (STZ) in sodium citrate buffer (pH 4.5) at a dose of 200 mg/kg. Blood glucose was measured by tail vein sampling using the glucose oxidase enzymatic test (Medisense glucometer, Abbott Laboratories, Bedford, Mass.). Diabetic nephropathy was evaluated in groups of mice killed at the end of 5 or 6 months (vehicle control groups) or 6 months (THR123 or BMP-7 group) after STZ injection. A group of STZ injected mice received oral administration of Thrasos compound daily at a dose of 5 mg/kg body weight for a month, from month 5 to month 6 after STZ injection. BMP-7 was administered intraperitoneally at a dose of 300 μg/kg body weight from month 1 to month 6.
Analysis of fibrosis in the H&E and Masson's trichrome stain in FIG. 18 through 22 from the mouse STZ study outlined in FIG. 17. Using the same image color analysis method used above to quantitate E-cadherin fluorescence for the in vitro EMT experiments, the images were quantitated, and the results shown in FIG. 23.
Eight weeks old male CD-1 mice are used all the diabetic experiment. Mice are performed single intraperitoneal (i.p.) injection of streptozotocin (STZ: 200 mg/Kg). Induction of diabetes is defined as blood glucose level >16 mM by 2 weeks after STZ injection. One month after induction of diabetes, mice were separated into three groups (BMP7, vehicle and non-treatment) and BMP7 (i.p. 300 μg/Kg/every other day) or vehicle injection was initiated. Five months after induction of diabetes, THR-123 (p.o. 5 mg/Kg/day) administration is initiated in diabetic mice. Mice are sacrificed at 5 (before the treatment) or 6 months after induction of diabetes.

A further data set concerns MCT cells. The data set is described as follows: TGF-β-induced EMT in MCT cells (inhibition and reversal). It counts as cell-based. Particulars: for reversal of EMT: additional 48 h after EMT induction, BMP-7 1 μg/ml; for percentage of cells that regained epithelial characteristics (length to width ratio 3 or less): reversal experiment, MCT cells. The method, then: FIG. 52A-FIG. 52E THR-123 inhibits epithelial-mesenchymal transition in MCT cells. Inhibition of EMT by THR-123. […] FIG. 52D, FIG. 52E qPCR analysis for mesenchymal marker CTGF (FIG. 52D) and Snail1 (FIG. 52E). Total RNA was extracted from cells. 1 μg of total RNA was used for generating complementary cDNA and subsequently qPCR was performed. N=3. Data was expressed as mean±s.e.m. in the graph.
FIG. 54A-FIG. 54H THR-123 reverses TGF-β-induced EMT in MCT cells. FIG. 54A-FIG. 54E. Cell were induced EMT by 48 h incubation of TGF-β and EGF (FIG. 54E). After induction of EMT, cells are incubated with either BMP-7 (1 μg/ml) (FIG. 54C), THR-123 (10 μM) (FIG. 54D) or control peptide (FIG. 54E) for an additional 48 h. […] FIG. 54F. Ratio of length to width was calculated in reversal experiment. 5 representative pictures of the cells in different areas of the well, were taken by using the inverted microscope. A total of 100 cells were analyzed (20 cells per picture). […] The data are presented mean±s.e.m. in the graph. FIG. 54G: 3 or less in length to width ratio in MCT cell was estimated as epithelial characteristics and the percentage of epithelial characteristics in each experimental setting are estimated. 52% of BMP7 and 41% of THR-123 treated MCT cells regained epithelial characteristics. Experiments were repeated three times.
as §1

The subject of data set [2] is pluripotent mesenchymal stem cells (C3H10T1/2). The data set is described as follows: Osteoblastic differentiation of pluripotent stem cells (alkaline phosphatase staining). It counts as cell-based, Murine. As to conditions: BMP-7 2 ug/mL. An excerpt:
Murine pluripotent mesenchymal stem cells (C3H10T1/2) treated with medium alone, BMP-7 or THR-123 were stained for alkaline phosphatase activity, an osteogenic marker. No staining of cells was observed when treated with medium alone (control, panel FIG. 41A) or with THR-123 (panel FIG. 41B). […] Cells were counterstained with hematoxylin.

The mark [3] stands for this setting: THR-123 month 5-6, BMP-7 month 1-6.
Where [4] appears, read: THR-123 month 5-6, BMP-7 month 1-6, listed as THR-123.

Entries after “also recorded” stand apart in the source; their conditions may differ. Positions of bridges follow the written chain, without caps; N, C: chain ends.

The values that follow come from US20160058829A1, “ANTI-FIBROTIC PEPTIDES AND THEIR USE IN METHODS FOR TREATING DISEASES AND DISORDERS CHARACTERIZED BY FIBROSIS” (Thrasos Innovation, Inc., priority 2011, published 2016).

On to “(H)-CYFDDSSNVLCKKYRS-(OH) (H-CYFDDSSNVLCKKYRS-OH; disulfide 1-11; SMILES CC(C)C[C@@H]1NC(=O)[C@H](C(C)C)NC(=O)[C@H](CC(N)=O)NC(=O)[C@H](CO)NC(=O)[C@H](CO)NC(=O)[C@H](CC(=O)O)NC(=O)[C@H](CC(=O)O)NC(=O)[C@H](Cc2ccccc2)NC(=O)[C@H](Cc2ccc(O)cc2)NC(=O)[C@@H](N)CSSC[C@@H](C(=O)N[C@@H](CCCCN)C(=O)N[C@@H](CCCCN)C(=O)N[C@@H](Cc2ccc(O)cc2)C(=O)N[C@@H](CCCNC(=N)N)C(=O)N[C@@H](CO)C(=O)O)NC1=O) [SEQ ID NO: 1]”, for which, in the data set on NP-1 cells, the “TGF-β-induced E-cadherin loss (co-incubation)” value is “prevents E-cadherin loss”; the “E-cadherin expression in TGF-β-incubated cells (reversal)” value is “reversed E-cadherin expression”; the “TGF-β-induced EMT, cell shape (co-incubation)” value (“TGF-β-induced EMT, cell shape” for short) is on record as “prevents these phenotypic changes”; the “percentage of cells that regained epithelial characteristics (length to width ratio)” value is 24%. Moreover, in data set [1], the “net increase in FSP1 (mesenchymal tissue) at six months versus normal animals” value is listed as 2 times and the “increase in BUN level relative to normal animals” value was 17%. Moreover, in data set [1] (month 5 to 6, listed as THR123, 5 mg/kg/day), the “interstitial fibrosis (collagen accumulation, Masson's trichrome)” value is recorded as “reduced renal fibrosis”. Moreover, the “interstitial fibrosis (collagen accumulation, Masson's trichrome)” value in data set [1] (month 5 to 6, listed as THR-123, 5 mg/kg/day) is listed as “lower than it was at 5 months; also recorded: markedly reduced”. For the same molecule, the glomerular surface area result in data set [1] (setting [3]) is listed as “little effect”. For the same molecule, the relative interstitial volume entry in data set [1] (THR-123 month 5-6, BMP-7 month 1-6, listed as THR123) is listed as “decreased interstitial volume”. For the same molecule, in data set [1] (setting [4]), the “BUN levels / renal function” value is “reversed renal dysfunction; also recorded: dropped to those of control animals”; the “damaged tubules / tubular atrophy” value was “inhibited tubular atrophy and interstitial volume increase; also recorded: reversed tubular atrophy and interstitial volume expansion; also recorded: markedly reduced”; the mesangial matrix expansion entry is listed as “inhibited mesangium expansion; also recorded: reversed mesangial matrix expansion; also recorded: significantly reduced”; the relative interstitial volume entry is reported as “markedly reduced”. Moreover, in data set [1] (mouse, in vivo), the “EMT program (FSP1 and E-cadherin double positive tubules)” value was “inhibited EMT program”; the “macrophage infiltration (Mac-1)” value is “significantly reduced the infiltration by macrophages”; the “phospho-Smad1/5 accumulation in kidney” value is listed as “increased accumulation of phospho-Smad1/5”. In addition, the “FSP-1 marker concentration relative to levels at 5 and 6 months” value in data set [1] (one month treatment, month 5 to 6) was “less than 1/10”. The “increase in mesangial matrix at 6 months” value in data set [1] (untreated 64% at 5 months, 104% at 6 months) was 37%. For the same molecule, the “increase in BUN level relative to normal animals” value in data set [1] (listed as THR-123) amounted to 12%. Moreover, in the data set on MCT cells (FIG. 52 D, E), the “TGF-β induced expression of snail and CTGF (qPCR)” value is reported as “inhibited”. Moreover, the “TGF-β-induced EMT, cell shape” value in the data set on MCT cells (TGF-β 2.5 ng/ml 48 h, THR-123 10 μM) is “prevents these phenotypic changes”. Also, the “reversal of EMT” value with MCT cells (THR-123 10 μM) is on record as “Reversal of EMT was observed”. In addition, in the data set on MCT cells, the “percentage of cells that regained epithelial characteristics (length to width ratio 3 or less)” value is on record as 41%. In data set [2], the “osteoblastic differentiation (alkaline phosphatase staining)” value is listed as “failed to induce osteoblastic differentiation”.

B1: BMP-7: bone morphogenetic protein-7; recombinant human BMP7, positive control (protein)
chain: STGSKQRSQNRSKTPKNQEALRMANVAENSSSDQRQACKKHELYVSFRDLGWQDWIIAPEGYAAYYCEGECAFPLNSYMNATNHAIVQTLVHFINPETVPKPCCAPTQLNAISVLYFDDSSNVILKKYRNMVVRACGCH
For the molecule B1, in the data set on NP-1 cells, the “TGF-β-induced E-cadherin loss (co-incubation)” value was “prevents E-cadherin loss”; the “E-cadherin expression in TGF-β-incubated cells (reversal)” value is recorded as “reversed E-cadherin expression”; the “TGF-β-induced EMT, cell shape” value is listed as “prevents these phenotypic changes”; the “percentage of cells that regained epithelial characteristics (length to width ratio)” value stood at 18%. Moreover, in data set [1], the “net increase in FSP1 (mesenchymal tissue) at six months versus normal animals” value is on record as 3 times and the “increase in BUN level relative to normal animals” value came to 2%. Further, in data set [1] (setting [3]), the “BUN levels / renal function” value was “reversed renal dysfunction; also recorded: dropped to those of control animals”; the “damaged tubules / tubular atrophy” value was “inhibited tubular atrophy and interstitial volume increase”; the mesangial matrix expansion result is on record as “inhibited mesangium expansion; also recorded: significantly reduced”; the relative interstitial volume result is given as “markedly reduced”. Further, in data set [1] (THR-123 month 5-6, BMP-7 month 1-6, listed as BMP), the “damaged tubules / tubular atrophy” value is reported as “halts the progression”. Further, the mesangial matrix expansion entry in data set [1] (THR-123 month 5-6, BMP-7 month 1-6, listed as BMP7) is recorded as “unaffected”. For the same molecule, in data set [1] (mouse, in vivo), the “EMT program (FSP1 and E-cadherin double positive tubules)” value is given as “inhibited EMT program”; the “macrophage infiltration (Mac-1)” value is “significantly reduced the infiltration by macrophages”. Besides, in the data set with MCT cells (THR-123 10 μM), the “reversal of EMT” value is listed as “Reversal of EMT was observed”. Besides, the “percentage of cells that regained epithelial characteristics (length to width ratio 3 or less)” value in the data set with MCT cells was found to be 52%. The “osteoblastic differentiation (alkaline phosphatase staining)” value in data set [2] is recorded as “induced osteoblastic differentiation”.
